# According to patent US9550782B2, “Compounds and methods for treating diabetes” (Medivation Technologies, Inc., priority 2011, dated 2017):
# Where “and” joins values, the source holds several entries; their conditions need not be identical. Equal values may be shown once.
# Molecular target: T1, human recombinant adrenergic α2A receptor (Homo sapiens, UniProt P08913)
# T1 construct: expressed in transfected cells; host or cells: insect Sf9 cells
# T1 sequence (P08913 1-465): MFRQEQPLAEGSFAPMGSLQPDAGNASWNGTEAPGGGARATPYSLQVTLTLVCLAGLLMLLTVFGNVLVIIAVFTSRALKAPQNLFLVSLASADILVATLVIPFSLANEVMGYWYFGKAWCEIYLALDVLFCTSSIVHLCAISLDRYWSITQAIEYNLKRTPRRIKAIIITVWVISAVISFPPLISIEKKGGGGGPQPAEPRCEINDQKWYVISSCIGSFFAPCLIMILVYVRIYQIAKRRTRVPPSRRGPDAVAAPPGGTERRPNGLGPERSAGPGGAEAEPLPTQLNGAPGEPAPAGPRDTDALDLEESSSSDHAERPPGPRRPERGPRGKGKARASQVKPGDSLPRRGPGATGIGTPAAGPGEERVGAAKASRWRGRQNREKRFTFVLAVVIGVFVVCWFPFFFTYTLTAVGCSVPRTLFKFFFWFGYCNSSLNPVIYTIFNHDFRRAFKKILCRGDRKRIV
# Experiment: Radioligand binding, adrenergic α2A ([3H]MK-912)
# Conditions: compound at 0.1 μM; [3H]MK-912; repeat datapoints each shown; 0.1 µM
# Method: To evaluate in radioligand binding assays the activity of compounds of the invention, human recombinant adrenergic α2A receptor expressed in insect Sf9 cells (Uhlen, S. et al, J. Pharmacol. Exp. Ther. 271:1558, 1994) in a modified Tris-HCl buffer (50 mM Tris-HCl, pH 7.4, 12.5 mM MgCl2, 2 mM EDTA) was used. Compounds of invention were incubated with 1 nM [^3H]MK-912 for 60 min at 25° C. MK912 is (2S-trans)-1,3,4,5′,6,6′,7,12b-octahydro-1′,3′-dimethyl-spiro[2H-benzofuro[2,3-a]quinolizine-2,4′(1′H)-pyrimidin]-2′(3′H)-one hydrochloride. Non-specific binding was estimated in the presence of 10 μM WB-4101 (2-(2,6-Dimethoxyphenoxyethyl)aminomethyl-1,4-benzodioxane hydrochloride). Receptor proteins were filtered and washed, the filters were then counted to determine [^3H]MK-912 specifically bound. […] Compounds of the invention were tested in this biochemical assay and percent inhibition of specific binding was determined. Biochemical assay results are presented as the percent inhibition of specific binding in Table B1.
row,Compound,"Percentage inhibition of ligand binding, Adrenergic α2A (0.1 μM)"
1,"Cc1ccc2c(c1)c1c(n2CC(O)c2cccnc2)CCN(CCO)C1 (single isomer, unassigned) [21a]",−1%
2,"Cc1ccc2c(c1)c1c(n2CC(O)c2cccnc2)CCN(CCO)C1 (single isomer, unassigned) [21b]",−3%
3,"Cc1ccc2c(c1)c1c(n2CC(O)c2ccccn2)CN(C)CC1 (single isomer, unassigned) [22a]",16%
4,"Cc1ccc2c(c1)c1c(n2CC(O)c2ccccn2)CN(C)CC1 (single isomer, unassigned) [22b]",0%
5,"Cc1ccc2c(c1)c1c(n2CC(C)(O)c2cccnc2)CCNC1 (single isomer, unassigned) [24a]",8%
6,"Cc1ccc2c(c1)c1c(n2CC(C)(O)c2cccnc2)CCNC1 (single isomer, unassigned) [24b]",15%

# Other lines, results leading:
row,"Percentage inhibition of ligand binding, Adrenergic α2A (0.1 μM)",Compound
1,19%,"Cc1cnc2c(c1)c1c(n2CC(C)(O)c2cccnc2)CCN2CCCC12 (single isomer, unassigned) [26c]"
2,0%,"Cc1cnc2c(c1)c1c(n2CC(C)(O)c2cccnc2)CCN2CCCC12 (single isomer, unassigned) [26d]"
3,28%,"CN1CCc2c(n(CC(C)(O)c3cccnc3)c3ccc(Cl)cc23)C1 (single isomer, unassigned) [28a]"
4,24%,"CN1CCc2c(n(CC(C)(O)c3cccnc3)c3ccc(Cl)cc23)C1 (single isomer, unassigned) [28b]"

# Molecular target: T2, human recombinant adrenergic α2B receptor (Homo sapiens, UniProt P18089)
# T2 construct: expressed in transfected cells; host or cells: CHO-K1
# T2 sequence (P18089 1-450): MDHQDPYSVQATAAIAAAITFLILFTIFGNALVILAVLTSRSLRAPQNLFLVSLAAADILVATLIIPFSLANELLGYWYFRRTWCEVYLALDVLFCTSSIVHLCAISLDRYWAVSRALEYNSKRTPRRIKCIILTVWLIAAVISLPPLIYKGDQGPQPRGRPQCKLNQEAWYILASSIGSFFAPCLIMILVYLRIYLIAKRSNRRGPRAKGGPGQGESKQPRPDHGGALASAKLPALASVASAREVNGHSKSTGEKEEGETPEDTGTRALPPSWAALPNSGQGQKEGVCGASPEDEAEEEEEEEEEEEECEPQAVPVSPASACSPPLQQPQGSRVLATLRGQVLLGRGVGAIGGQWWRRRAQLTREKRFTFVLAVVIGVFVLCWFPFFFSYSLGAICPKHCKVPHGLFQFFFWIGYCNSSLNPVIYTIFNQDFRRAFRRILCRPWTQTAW
# Experiment: Radioligand binding, adrenergic α2B ([3H]Rauwolscine)
# Conditions: compound at 0.03 μM, repeat datapoints each shown, 0.03 µM
# Method: To evaluate in radioligand binding assays the activity of compounds of the invention, human recombinant adrenergic α2B receptor expressed in Chinese hamster ovary (CHO) K1 cells (Uhlen, S. et al, Eur. J. Pharmacol. 343(1):93, 1998) in a modified Tris-HCl buffer (50 mM Tris-HCl, pH 7.4, 12.5 mM MgCl2, 1 mM EDTA, 0.2% BSA) was used. Compounds of the invention were incubated with 2.5 nM [3H]Rauwolscine for 60 min at 25° C. Non-specific binding was estimated in the presence of 10 μM Prazosin. Receptor proteins were filtered and washed, the filters were then counted to determine [3H]Rauwolscine specifically bound. […] Compounds of the invention were tested in this biochemical assay and percent inhibition of specific binding was determined. Biochemical assay results are presented as the percent inhibition of specific binding in Table B1.
row,Compound,"Percentage inhibition of ligand binding, Adrenergic α2B (0.03 μM)"
1,"Cc1ccc2c(c1)c1c(n2CC(O)c2cccnc2)CCN(CCO)C1 (single isomer, unassigned) [21a]",−2%
2,"Cc1ccc2c(c1)c1c(n2CC(O)c2cccnc2)CCN(CCO)C1 (single isomer, unassigned) [21b]",1%
3,"Cc1ccc2c(c1)c1c(n2CC(O)c2ccccn2)CN(C)CC1 (single isomer, unassigned) [22a]",22%
4,"Cc1ccc2c(c1)c1c(n2CC(O)c2ccccn2)CN(C)CC1 (single isomer, unassigned) [22b]",30%
5,"Cc1ccc2c(c1)c1c(n2CC(C)(O)c2cccnc2)CCNC1 (single isomer, unassigned) [24a]",63%
6,"Cc1ccc2c(c1)c1c(n2CC(C)(O)c2cccnc2)CCNC1 (single isomer, unassigned) [24b]",29%

# The next lines start with the values.
row,"Percentage inhibition of ligand binding, Adrenergic α2B (0.03 μM)",Compound
1,1% and 7%,"Cc1cnc2c(c1)c1c(n2CC(C)(O)c2cccnc2)CCN2CCCC12 (single isomer, unassigned) [26c]"
2,6% and 11%,"Cc1cnc2c(c1)c1c(n2CC(C)(O)c2cccnc2)CCN2CCCC12 (single isomer, unassigned) [26d]"
3,96%,"CN1CCc2c(n(CC(C)(O)c3cccnc3)c3ccc(Cl)cc23)C1 (single isomer, unassigned) [28a]"
4,37%,"CN1CCc2c(n(CC(C)(O)c3cccnc3)c3ccc(Cl)cc23)C1 (single isomer, unassigned) [28b]"

# Molecular target: T3, rat adrenergic α1B receptor (Rattus norvegicus, UniProt P15823)
# T3 construct: rat adrenergic α1B receptor obtained from Wistar Rat liver; from tissue; host or cells: Wistar rat liver
# T3 sequence (P15823 1-515): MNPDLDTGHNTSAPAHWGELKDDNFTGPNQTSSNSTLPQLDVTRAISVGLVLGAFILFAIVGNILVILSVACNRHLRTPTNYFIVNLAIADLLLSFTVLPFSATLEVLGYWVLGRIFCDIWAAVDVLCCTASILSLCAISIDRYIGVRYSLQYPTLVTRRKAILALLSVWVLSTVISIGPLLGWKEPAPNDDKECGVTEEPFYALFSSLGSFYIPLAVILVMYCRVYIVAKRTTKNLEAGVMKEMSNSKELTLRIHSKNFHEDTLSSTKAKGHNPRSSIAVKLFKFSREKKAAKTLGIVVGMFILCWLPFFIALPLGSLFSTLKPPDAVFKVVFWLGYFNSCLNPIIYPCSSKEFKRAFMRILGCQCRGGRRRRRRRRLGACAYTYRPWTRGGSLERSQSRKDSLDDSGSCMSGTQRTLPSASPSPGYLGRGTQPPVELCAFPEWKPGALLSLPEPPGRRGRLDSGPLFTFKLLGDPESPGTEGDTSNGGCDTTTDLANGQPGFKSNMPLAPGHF
# Experiment: Radioligand binding, adrenergic α1B ([3H]Prazosin)
# Parameters: species or system Wistar Rat
# Conditions: compound at 0.1 μM, repeat datapoints each shown
# Method: To evaluate in radioligand binding assays the activity of compounds of the invention, rat adrenergic α1B receptor obtained from Wistar Rat liver (Garcia-S'ainz, J. et al, Biochem. Biophys. Res. Commun. 186:760, 1992; Michel, A. et al, Br. J. Pharmacol. 98:883, 1989) in a modified Tris-HCl buffer (50 mM Tris-HCl buffer, pH 7.4, 0.5 mM EDTA) was used. Compounds of the invention were incubated with 0.25 nM [^3H]Prazosin for 60 min at 25° C. Non-specific binding was estimated in the presence of 10 μM phentolamine. Receptor proteins were filtered and washed, the filters were then counted to determine [^3H]Prazosin specifically bound. […] Compounds of the invention were tested in this biochemical assay and percent inhibition of specific binding was determined. Biochemical assay results are presented as the percent inhibition of specific binding in Table B1.
row,"Percentage inhibition of ligand binding, Adrenergic α1B (0.1 μM)",Compound
1,8%,"Cc1ccc2c(c1)c1c(n2CC(C)(O)c2cccnc2)CCNC1 (single isomer, unassigned) [24a]"
2,8%,"Cc1ccc2c(c1)c1c(n2CC(C)(O)c2cccnc2)CCNC1 (single isomer, unassigned) [24b]"

# Same assay, conditions: compound at 0.1 μM, repeat datapoints each shown, 0.1 µM
row,Compound,"Percentage inhibition of ligand binding, Adrenergic α1B (0.1 μM)"
1,"Cc1ccc2c(c1)c1c(n2CC(O)c2cccnc2)CCN(CCO)C1 (single isomer, unassigned) [21a]",5%
2,"Cc1ccc2c(c1)c1c(n2CC(O)c2cccnc2)CCN(CCO)C1 (single isomer, unassigned) [21b]",−2%
3,"Cc1ccc2c(c1)c1c(n2CC(O)c2ccccn2)CN(C)CC1 (single isomer, unassigned) [22a]",19%
4,"Cc1ccc2c(c1)c1c(n2CC(O)c2ccccn2)CN(C)CC1 (single isomer, unassigned) [22b]",9%

# Further lines, results first:
row,"Percentage inhibition of ligand binding, Adrenergic α1B (0.1 μM)",Compound
1,1%,"Cc1cnc2c(c1)c1c(n2CC(C)(O)c2cccnc2)CCN2CCCC12 (single isomer, unassigned) [26c]"
2,−2%,"Cc1cnc2c(c1)c1c(n2CC(C)(O)c2cccnc2)CCN2CCCC12 (single isomer, unassigned) [26d]"
3,41%,"CN1CCc2c(n(CC(C)(O)c3cccnc3)c3ccc(Cl)cc23)C1 (single isomer, unassigned) [28a]"
4,20%,"CN1CCc2c(n(CC(C)(O)c3cccnc3)c3ccc(Cl)cc23)C1 (single isomer, unassigned) [28b]"
